The values that follow come from PubChem BioAssay (NCI).

Where “and” joins values, the source holds several entries; their conditions need not be identical. Equal entries are not always repeated.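 Results reflect a 48-hour exposure of cells in 96-well plates to compound at five concentrations. At the GI50, growth is halved. Definition used: TGI = concentration required for complete inhibition of growth.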

The test system of the first experiment is SF-268 CNS. Description: NCI anticancer screen, dose series, 48 h.
With `Cc1cc(O)c(C(C)C)cc1S(=O)(=O)O` (tested in a mixture with another compound), the GI50 was 0.797 µM.

Take `COc1cc(C[C@H]2c3cc(OC)c(OC)cc3CCN2C)c(Oc2cc3c(cc2OC)-c2c(OC)c(OC)cc4c2[C@H](C3)N(C)CC4)cc1OC`: the GI50 was 14.3 µM; the TGI was 31 µM and 28.4 µM.

For the compound `Cc1ccc(S(=O)(=O)N/N=C/c2c(O)ccc3ccccc23)cc1`, the TGI was more than 100 µM.

Consider `CCN(CC)CCCC(C)Nc1ccnc2cc(Oc3ccccc3)ccc12` (stereo not given), for which the GI50 was 6.48 µM and 8.36 µM; the TGI is 19.9 µM and 92.4 µM.

As for `C=C1CCC2C3(C)COC(c4ccc(N(C)C)cc4)OC3CCC2(C)C1C/C=C1/C(=O)OCC1O` (stereo not given), the GI50 was 3.78 µM and the TGI amounted to 14.4 µM.

In turn, `COc1cc(OC(=O)c2ccccc2)cc2c1C(=O)C=CC2=O` yielded a TGI of 36.3 µM.

On to `CC/C=C1/C(=O)C=C[C@@H]1C/C=C\CCCC(=O)OC`, for which the GI50 was 3.03 µM and the TGI stood at 13.1 µM.

For the compound `CCN(CC)CCCCNc1c2ccccc2[n+](C)c2c1[nH]c1ccccc12`, the GI50 was 0.209 µM and the TGI was 1.4 µM.

Consider `COc1cc(NC(C)CCCNC2CN3CCC2CC3)c2ncccc2c1` (stereo not given), for which the GI50 was 12.2 µM and the TGI turned out to be 25.8 µM.

`COc1ccc(C(=O)c2cc(OC)c(OC)c(OC)c2)cc1OC(=O)CCl`: the GI50 was 0.106 µM and the TGI is more than 100 µM.

As to `CN[C@@H](C)C(=O)N[C@H](C(=O)N1CCC[C@H]1C(=O)Nc1snnc1-c1ccccc1)C1CCCCC1`, the GI50 is more than 86.1 µM and the TGI was more than 100 µM.

Consider `COc1ccc(/C(COc2ccc3c(=O)cc(-c4ccccc4)oc3c2)=N\O)cc1`, for which the GI50 was 11.3 µM and the TGI was more than 36.8 µM.

Another experiment relates to SF-295 CNS. Description: NCI anticancer screen, dose series, 48 h.
As to `Cc1cc(O)c(C(C)C)cc1S(=O)(=O)O` (tested in a mixture with another compound), the GI50 was 0.281 µM.

Turning to `COc1cc(C[C@H]2c3cc(OC)c(OC)cc3CCN2C)c(Oc2cc3c(cc2OC)-c2c(OC)c(OC)cc4c2[C@H](C3)N(C)CC4)cc1OC`, the GI50 is 16.5 µM; the TGI is 21 µM and 30.7 µM.

The compound `Cc1ccc(S(=O)(=O)N/N=C/c2c(O)ccc3ccccc23)cc1` came in with a TGI of 57.5 µM.

`CCN(CC)CCCC(C)Nc1ccnc2cc(Oc3ccccc3)ccc12` (stereo not given): the GI50 was 2.69 µM and 4.09 µM; the TGI was 17.4 µM and 19 µM.

On to `C=C1CCC2C3(C)COC(c4ccc(N(C)C)cc4)OC3CCC2(C)C1C/C=C1/C(=O)OCC1O` (stereo not given), for which the GI50 is 6 µM and the TGI was 20 µM.

Turning to `COc1cc(OC(=O)c2ccccc2)cc2c1C(=O)C=CC2=O`, the TGI came to 32.1 µM.

Regarding `CC/C=C1/C(=O)C=C[C@@H]1C/C=C\CCCC(=O)OC`, the GI50 was 2.6 µM and the TGI came out at 6.76 µM.

For the compound `CCN(CC)CCCCNc1c2ccccc2[n+](C)c2c1[nH]c1ccccc12`, the GI50 is 0.542 µM and the TGI stood at 4.31 µM.

Take `COc1cc(NC(C)CCCNC2CN3CCC2CC3)c2ncccc2c1` (stereo not given): the GI50 is 11.6 µM and the TGI is 27.7 µM.

For `COc1ccc(C(=O)c2cc(OC)c(OC)c(OC)c2)cc1OC(=O)CCl`, the GI50 is 0.0456 µM and the TGI was more than 100 µM.

`CN[C@@H](C)C(=O)N[C@H](C(=O)N1CCC[C@H]1C(=O)Nc1snnc1-c1ccccc1)C1CCCCC1`: the GI50 is 34.4 µM and the TGI was more than 100 µM.

Turning to `COc1ccc(/C(COc2ccc3c(=O)cc(-c4ccccc4)oc3c2)=N\O)cc1`, the GI50 is 12.5 µM and the TGI is 42.8 µM.

The subject of the next experiment is PC-3 prostate. Description: NCI anticancer screen, dose series, 48 h.
On to `Cc1cc(O)c(C(C)C)cc1S(=O)(=O)O` (tested in a mixture with another compound), for which the GI50 was 0.318 µM and the TGI worked out at 9.01 µM.

As to `COc1cc(C[C@H]2c3cc(OC)c(OC)cc3CCN2C)c(Oc2cc3c(cc2OC)-c2c(OC)c(OC)cc4c2[C@H](C3)N(C)CC4)cc1OC`, the TGI worked out at 33.7 µM.

`Cc1ccc(S(=O)(=O)N/N=C/c2c(O)ccc3ccccc23)cc1` gave a TGI of 58.6 µM.

As for `CCN(CC)CCCC(C)Nc1ccnc2cc(Oc3ccccc3)ccc12` (stereo not given), the GI50 is 8.89 µM and 19.3 µM; the TGI was 35.5 µM and > 100 µM.

For the compound `C=C1CCC2C3(C)COC(c4ccc(N(C)C)cc4)OC3CCC2(C)C1C/C=C1/C(=O)OCC1O` (stereo not given), the GI50 is 2.32 µM and the TGI amounted to 9.83 µM.

`COc1cc(OC(=O)c2ccccc2)cc2c1C(=O)C=CC2=O`: the TGI came to 28.5 µM.

With `CC/C=C1/C(=O)C=C[C@@H]1C/C=C\CCCC(=O)OC`, the GI50 was 3.02 µM and the TGI stood at 8.56 µM.

For `CCN(CC)CCCCNc1c2ccccc2[n+](C)c2c1[nH]c1ccccc12`, the GI50 is 0.355 µM and the TGI was 2.29 µM.

Take `COc1cc(NC(C)CCCNC2CN3CCC2CC3)c2ncccc2c1` (stereo not given): the GI50 is 12.5 µM and the TGI worked out at 35.1 µM.

In the case of `COc1ccc(C(=O)c2cc(OC)c(OC)c(OC)c2)cc1OC(=O)CCl`, the GI50 is less than 0.0192 µM and the TGI was more than 100 µM.

As to `CN[C@@H](C)C(=O)N[C@H](C(=O)N1CCC[C@H]1C(=O)Nc1snnc1-c1ccccc1)C1CCCCC1`, the GI50 was 48.6 µM and the TGI was more than 100 µM.

In the case of `COc1ccc(/C(COc2ccc3c(=O)cc(-c4ccccc4)oc3c2)=N\O)cc1`, the GI50 is 12.7 µM and the TGI is more than 36.1 µM.

The subject of a further experiment is HCT-15 colon. Description: NCI anticancer screen, dose series, 48 h.
Consider `Cc1cc(O)c(C(C)C)cc1S(=O)(=O)O` (tested in a mixture with another compound), for which the GI50 is 0.38 µM.

Consider `COc1cc(C[C@H]2c3cc(OC)c(OC)cc3CCN2C)c(Oc2cc3c(cc2OC)-c2c(OC)c(OC)cc4c2[C@H](C3)N(C)CC4)cc1OC`, for which the GI50 was 10.8 µM; the TGI was 26.4 µM and 23.4 µM.

On to `Cc1ccc(S(=O)(=O)N/N=C/c2c(O)ccc3ccccc23)cc1`, for which the TGI is more than 100 µM.

Consider `CCN(CC)CCCC(C)Nc1ccnc2cc(Oc3ccccc3)ccc12` (stereo not given), for which the GI50 is 4.34 µM and 3.94 µM; the TGI was 28.3 µM and 20.1 µM.

Regarding `C=C1CCC2C3(C)COC(c4ccc(N(C)C)cc4)OC3CCC2(C)C1C/C=C1/C(=O)OCC1O` (stereo not given), the GI50 is 1.91 µM and the TGI came out at 6 µM.

With `COc1cc(OC(=O)c2ccccc2)cc2c1C(=O)C=CC2=O`, the TGI was determined as 31.4 µM.

Consider `CC/C=C1/C(=O)C=C[C@@H]1C/C=C\CCCC(=O)OC`, for which the GI50 was 1.94 µM and the TGI amounted to 5.31 µM.

For the compound `CCN(CC)CCCCNc1c2ccccc2[n+](C)c2c1[nH]c1ccccc12`, the GI50 is 7.15 µM and the TGI was more than 70 µM.

`COc1cc(NC(C)CCCNC2CN3CCC2CC3)c2ncccc2c1` (stereo not given): the GI50 is 11.5 µM and the TGI worked out at 27.3 µM.

Regarding `COc1ccc(C(=O)c2cc(OC)c(OC)c(OC)c2)cc1OC(=O)CCl`, the GI50 is less than 0.0132 µM and the TGI was more than 100 µM.

In the case of `CN[C@@H](C)C(=O)N[C@H](C(=O)N1CCC[C@H]1C(=O)Nc1snnc1-c1ccccc1)C1CCCCC1`, the GI50 is 58.3 µM and the TGI is more than 100 µM.

As to `COc1ccc(/C(COc2ccc3c(=O)cc(-c4ccccc4)oc3c2)=N\O)cc1`, the GI50 was 22.8 µM and the TGI was more than 50 µM.

The subject of another experiment is CCRF-CEM leukemia. Description: NCI anticancer screen, dose series, 48 h.
Regarding `Cc1cc(O)c(C(C)C)cc1S(=O)(=O)O` (tested in a mixture with another compound), the GI50 was 0.323 µM.

`COc1cc(C[C@H]2c3cc(OC)c(OC)cc3CCN2C)c(Oc2cc3c(cc2OC)-c2c(OC)c(OC)cc4c2[C@H](C3)N(C)CC4)cc1OC`: the GI50 is 6.59 µM; the TGI was 27.6 µM and 22.6 µM.

`Cc1ccc(S(=O)(=O)N/N=C/c2c(O)ccc3ccccc23)cc1` gave a TGI of more than 100 µM.

Consider `CCN(CC)CCCC(C)Nc1ccnc2cc(Oc3ccccc3)ccc12` (stereo not given), for which the GI50 is 2.64 µM and 4.69 µM; the TGI is 12.8 µM and 55.6 µM.

As for `C=C1CCC2C3(C)COC(c4ccc(N(C)C)cc4)OC3CCC2(C)C1C/C=C1/C(=O)OCC1O` (stereo not given), the GI50 is 1.35 µM and the TGI was determined as 3.99 µM.

For `COc1cc(OC(=O)c2ccccc2)cc2c1C(=O)C=CC2=O`, the TGI worked out at 5.63 µM.

On to `CC/C=C1/C(=O)C=C[C@@H]1C/C=C\CCCC(=O)OC`, for which the GI50 is 0.519 µM and the TGI came to 10.6 µM.

For the compound `CCN(CC)CCCCNc1c2ccccc2[n+](C)c2c1[nH]c1ccccc12`, the GI50 was 0.59 µM and the TGI turned out to be 3.39 µM.

As to `COc1cc(NC(C)CCCNC2CN3CCC2CC3)c2ncccc2c1` (stereo not given), the GI50 is 19 µM and the TGI is more than 100 µM.

On to `COc1ccc(C(=O)c2cc(OC)c(OC)c(OC)c2)cc1OC(=O)CCl`, for which the GI50 is 0.0297 µM and the TGI is more than 100 µM.

Take `CN[C@@H](C)C(=O)N[C@H](C(=O)N1CCC[C@H]1C(=O)Nc1snnc1-c1ccccc1)C1CCCCC1`: the GI50 is 32.3 µM and the TGI is more than 100 µM.

For the compound `COc1ccc(/C(COc2ccc3c(=O)cc(-c4ccccc4)oc3c2)=N\O)cc1`, the GI50 is more than 50 µM and the TGI was more than 50 µM.
